Assay [1] concerns the target T1, hM5 mAcChR (Homo sapiens, UniProt P08912).
T1 sequence (P08912 1-532): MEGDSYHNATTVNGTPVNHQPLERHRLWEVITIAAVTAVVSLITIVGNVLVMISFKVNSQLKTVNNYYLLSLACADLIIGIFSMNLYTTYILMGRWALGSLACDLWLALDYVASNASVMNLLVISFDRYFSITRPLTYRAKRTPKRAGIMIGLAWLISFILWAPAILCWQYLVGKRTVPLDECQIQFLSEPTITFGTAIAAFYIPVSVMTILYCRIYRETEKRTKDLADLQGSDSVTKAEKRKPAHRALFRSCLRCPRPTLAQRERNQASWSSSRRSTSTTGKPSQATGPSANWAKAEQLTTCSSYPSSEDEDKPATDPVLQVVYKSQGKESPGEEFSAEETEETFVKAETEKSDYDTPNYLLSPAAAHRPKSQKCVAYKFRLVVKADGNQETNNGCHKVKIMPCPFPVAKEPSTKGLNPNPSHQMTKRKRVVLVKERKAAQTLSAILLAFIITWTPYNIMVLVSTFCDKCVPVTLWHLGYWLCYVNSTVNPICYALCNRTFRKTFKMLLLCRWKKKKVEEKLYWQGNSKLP
Kind of assay: [3H]NMS binding to membranes from CHO-K1 cells expressing hM5.

Assay [2] addresses T2, hM1 mAcChR (Homo sapiens, UniProt P11229).
T2 sequence (P11229 1-460): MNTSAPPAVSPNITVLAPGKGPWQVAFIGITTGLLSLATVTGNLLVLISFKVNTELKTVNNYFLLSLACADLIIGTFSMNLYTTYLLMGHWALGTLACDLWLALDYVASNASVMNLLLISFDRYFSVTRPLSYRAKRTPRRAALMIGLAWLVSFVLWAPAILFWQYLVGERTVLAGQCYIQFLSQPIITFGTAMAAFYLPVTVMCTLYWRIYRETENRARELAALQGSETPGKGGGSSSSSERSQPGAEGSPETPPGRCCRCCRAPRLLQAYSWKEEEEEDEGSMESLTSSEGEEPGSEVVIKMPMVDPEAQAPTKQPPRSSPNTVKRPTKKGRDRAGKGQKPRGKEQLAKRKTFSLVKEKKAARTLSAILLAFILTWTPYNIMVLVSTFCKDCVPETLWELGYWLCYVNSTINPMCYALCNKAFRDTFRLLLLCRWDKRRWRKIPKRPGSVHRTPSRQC
Kind of assay: [3H]N-methylscopolamine. In kind it is binding.

Consider `CCN1CCC(c2ccccc2)=C(C(=O)OCCc2ccc(S(C)(=O)=O)cc2)C1` [Compound 27], for which the “binding affinity at M5 receptor (in words)” value in assay [1] is “little affinity”. Besides, the “binding affinity at M1 receptor (in words)” value in assay [2] is on record as “little affinity”.

Regarding `COc1ccc(CCOC(=O)C2=C(c3ccccc3)CCN(Cc3ccc(OC)cc3)C2)cc1` [Compound 40], in assay [1], the “binding affinity at M5 receptor (in words)” value was “eliminated affinity”. Further, the “binding affinity at M1 receptor (in words)” value in assay [2] is “eliminated affinity”.

As to `CCN1CCC(c2ccccc2)=C(C(=O)OCCc2ccc3c(c2)CCO3)C1` [Compound 28], in assay [1], the M1/M5 is 1,390 (6.0), the M2/M5 is listed as >100,000 (>435), the M3/M5 was 31,100 (135) and the M4/M5 was 10,500 (46).

In the case of `COc1ccc(CCOC(=O)C2=C(c3cccc(F)c3)CCN(C)C2)cc1OC` [Compound 66], in assay [1], the M2/M5 is recorded as >100,000 (>30), the M3/M5 is >100,000 (>30) and the M4/M5 is on record as >100,000 (>30).

With `CN1CCC(c2ccccc2)=C(C(=O)OCCc2cccc3ccccc23)C1` [Compound 57], in assay [1], the M1/M5 was 24,400 (4.8), the M2/M5 is reported as >100,000 (>20), the M3/M5 is >100,000 (>20) and the M4/M5 is on record as >100,000 (>20).

Regarding `CN1CCC(c2ccccc2F)=C(C(=O)OCCc2ccc3c(c2)CCO3)C1` [Compound 63], in assay [1], the M1/M5 was 5,270 (7.1), the M2/M5 is 540 (0.7), the M3/M5 was 4,890 (6.6) and the M4/M5 is 5,740 (7.8).

On to `CCCN1CCC(c2ccccc2)=C(C(=O)OCCc2ccc(OC)cc2)C1` [Compound 43], for which, in assay [1], the “binding affinity at M5 receptor (in words)” value is “eliminated affinity”. In addition, the “binding affinity at M1 receptor (in words)” value in assay [2] was “eliminated affinity”.

For the compound `CN1CC=C(c2ccccc2C(=O)OCCc2ccc3c(c2)CCO3)CC1` [Compound 89], the “binding affinity at M5 receptor (in words)” value in assay [1] is recorded as “complete loss of binding affinity”. Moreover, the “binding affinity at M1 receptor (in words)” value in assay [2] is reported as “complete loss of binding affinity”.

Regarding `CCN1CCC(c2ccccc2)=C(C(=O)OCCc2cccc(OC)c2)C1` [Compound 18], in assay [1], the “increase in binding affinity at M5 relative to compound 8” value came to 3 fold and the “increase in binding affinity at M5 relative to compound 17” value is on record as 8 fold.

For the compound `CN1CCC(c2ccccc2)=C(C(=O)OCCc2ccc3c(c2)CCO3)C1` [Compound 45], in assay [1], the M1/M5 is reported as 290 (4.8), the M2/M5 is on record as 1,170 (20), the M3/M5 is reported as 2,840 (47) and the M4/M5 is reported as 1,890 (32).

On to `CCCCN1CCC(c2ccccc2)=C(C(=O)OCCc2ccc(OC)cc2)C1` [Compound 44], for which, in assay [1], the “binding affinity at M5 receptor (in words)” value is “eliminated affinity”. Besides, the “binding affinity at M1 receptor (in words)” value in assay [2] is reported as “eliminated affinity”.

As for `COc1ccc(CCOC(=O)C2=C(c3ccccc3)CCN(C)C2)cc1` [Compound 42], in assay [1], the “increase in binding affinity at M5 relative to compound 8” value amounted to 14 fold. Also, in assay [2], the “increase in binding affinity at M1 relative to compound 8” value amounted to 8 fold.

These data come from paper PMC3676450 (Journal of medicinal chemistry, 2013).
